In the assay the test system is Platynereis FLamide receptor. The assay can be described thus: Positive control of deorphanization assay, luminescence. The assay is classed as cell-based. Particulars: 1 μM AKYFL-NH2. The source says: Fig 1 Identification of the Clytia MIHR. (A) Diagram of a Clytia gonad showing the different tissues used for RNA-seq and GPCR expression comparisons. A total of 536 putative GPCRs identified in Clytia mixed-stages transcriptome were assigned to the three main GPCR classes (A, B, C) or “other” based on Pfam signatures. The 16 top candidate MIH GPCRs were selected based on oocyte enrichment, relatedness to known bilaterian class-A neuropeptide GPCRs, and Pfam information. (B) Luminescence response of CHO-K1 cells expressing the putative Clytia MIH GPCR treated with neuropeptide mixes lacking MIH activity (purple bars), MIH tetrapeptides identified from C. hemisphaerica (blue bars) or Cladonema radiatum (green bars), or related penta- and tripeptides previously shown to be ineffective in triggering oocyte maturation in vivo (red bars). Empty pcDNA3.1 vector was used as negative control and Platynereis FLamide and its receptor as a positive control (gray bars). Peptide concentrations all 1 μM. Absolute units of luminescence were normalized using the positive control; data are shown as mean ± standard error of the mean (n = 3). […] Luminescence values were normalized relative to the maximum of fitted dose–response curves and are shown as mean ± standard error of the mean (n = 3). Half maximal effective concentration (EC50) values were calculated as means of 3 independent experiments. […]

On to “AKYFL-NH2 [(+) Ctrl, ligand for Platynereis FLamide receptor]”, for which the “Normalised response (to positive control), mean” value is given as 1.

Source of the values: PMC7053711, “A G protein–coupled receptor mediates neuropeptide-induced oocyte maturation in the jellyfish Clytia” (PLoS Biology, 2020).
